Data: patent US11161856B2 (H. Lundbeck A/S, priority 2017, dated 2021)
pIC50: −log10 of the molar value.

Key:
Format in all cases: biochemical
ABHD6 = molecular target: T1, ABHD6 (Mus musculus, UniProt Q8R2Y0); assay: In vitro competitive activity-based protein profiling, mouse brain proteome (ABHD6); conditions: mouse brain proteome; concentration not given (μM)
T1 construct: Brain; from tissue; host or cells: mouse brain proteome
T1 sequence (Q8R2Y0 1-336): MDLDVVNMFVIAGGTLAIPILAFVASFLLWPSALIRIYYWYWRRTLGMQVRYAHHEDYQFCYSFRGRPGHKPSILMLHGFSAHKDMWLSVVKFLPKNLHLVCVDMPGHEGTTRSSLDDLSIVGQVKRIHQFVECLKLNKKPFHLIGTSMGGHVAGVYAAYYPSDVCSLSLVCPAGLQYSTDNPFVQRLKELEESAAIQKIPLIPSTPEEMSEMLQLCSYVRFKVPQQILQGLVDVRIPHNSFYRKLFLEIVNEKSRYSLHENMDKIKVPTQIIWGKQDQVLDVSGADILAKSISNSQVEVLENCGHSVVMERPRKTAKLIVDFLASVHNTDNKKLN
Protocol: [The source words this procedure for another target and reports this target under the same test.] (§1) In Vitro Competitive Activity-Based Protein Profiling.
(§2) Proteomes (human prefrontal cortex or cell membrane fractions) (50 μL, 1.0 mg/mL total protein concentration) were preincubated with varying concentrations of inhibitors at 37° C. After 30 min, FP-Rh or HT-01 (1.0 μL, 50 μM in DMSO) was added and the mixture was incubated for another 30 min at room temperature. Reactions were quenched with SDS loading buffer (15 μL-4×) and run on SDS-PAGE.

MAGL = molecular target: T2, MAGL (Homo sapiens, UniProt Q99685); assay: In vitro competitive activity-based protein profiling (FP-Rh or HT-01 probe, gel-based); parameters: IC50 MGLL PC3 (Human, μM) / IC50 MGLL PFC (Human, μM): scale not given here; conditions: for % Inh MGLL PC3 (Human, μM) / % Inh MGLL PFC (Human, μM): concentration not given (μM)
T2 construct: Proteomes (human prefrontal cortex or cell membrane fractions); from tissue
T2 sequence (Q99685 1-303): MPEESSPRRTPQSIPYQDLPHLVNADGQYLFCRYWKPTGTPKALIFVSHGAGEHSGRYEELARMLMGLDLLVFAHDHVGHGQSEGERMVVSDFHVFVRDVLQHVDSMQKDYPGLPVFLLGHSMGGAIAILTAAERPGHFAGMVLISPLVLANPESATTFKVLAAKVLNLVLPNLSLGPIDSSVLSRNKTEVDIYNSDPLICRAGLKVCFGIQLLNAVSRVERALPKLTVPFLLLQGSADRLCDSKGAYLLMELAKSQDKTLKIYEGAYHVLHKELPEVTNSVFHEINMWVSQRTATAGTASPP
Protocol: as §1, §2

MGLL = molecular target: T3, MGLL (Mus musculus, UniProt O35678); assay: In vitro competitive activity-based protein profiling, mouse brain proteome (MGLL); parameters: IC50 MGLL Brain (Mouse, μM): scale not given here; conditions: for % Inh MGLL Brain (Mouse, μM): concentration not given (μM)
T3 construct: Brain; from tissue; host or cells: mouse brain proteome
T3 sequence (O35678 1-303): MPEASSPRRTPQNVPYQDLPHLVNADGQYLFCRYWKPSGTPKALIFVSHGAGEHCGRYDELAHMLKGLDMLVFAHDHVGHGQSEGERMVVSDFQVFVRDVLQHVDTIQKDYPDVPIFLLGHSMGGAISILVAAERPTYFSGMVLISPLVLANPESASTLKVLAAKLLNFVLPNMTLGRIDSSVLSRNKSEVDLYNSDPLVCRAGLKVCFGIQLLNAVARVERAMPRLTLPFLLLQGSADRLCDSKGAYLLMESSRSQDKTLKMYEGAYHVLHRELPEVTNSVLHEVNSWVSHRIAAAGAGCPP

[1] = prefrontal cortex (PFC) proteome

In the case of CN(Cc1ccc(C(F)(F)F)cc1N1CC2CC1CN2CC(=O)O)C1(C)CCN(C(=O)OC(C(F)(F)F)C(F)(F)F)CC1 (stereo not shown) [Example 27, 2-(5-(2-(((1-(((1,1,1,3,3,3-Hexafluoropropan-2-yl)oxy)carbonyl)-4-methylpiperidin-4-yl)(methyl)amino)methyl)-5-(trifluoromethyl)phenyl)-2,5-diazabicyclo[2.2.1]heptan-2-yl)acetic acid], the “% Inh ABHD6 Brain (Mouse, μM)” value (ABHD6) was “### (### is ≥75%)”, the “IC50 MGLL PC3 (Human, μM)” value (MAGL; PC3 cell proteome) was “* * *” and the “% Inh MGLL PC3 (Human, μM)” value (MAGL; PC3 cell proteome) was “### (### is ≥75%)”. For the same compound, the “IC50 MGLL PFC (Human, μM)” value (MAGL; [1]) was “* * *” and the “% Inh MGLL Brain (Mouse, μM)” value (MGLL) was “### (### is ≥75%)”.
In the case of O=C(OC(C(F)(F)F)C(F)(F)F)N1CCC2(CCCN2C(=O)c2ccc(Cl)cc2)CC1 [Example 13, 1,1,1,3,3,3-Hexafluoropropan-2-yl 1-(4-chlorobenzoyl)-1,8-diazaspiro[4.5]decane-8-carboxylate], the “% Inh ABHD6 Brain (Mouse, μM)” value (ABHD6) was “### (### is ≥75%)”, the “% Inh MGLL PFC (Human, μM)” value (MAGL; [1]) was “### (### is ≥75%)” and the “IC50 MGLL Brain (Mouse, μM)” value (MGLL) was “* * *”. For the same compound, the “% Inh MGLL Brain (Mouse, μM)” value (MGLL) was “### (### is ≥75%)”.
With CN(Cc1cccc(F)c1C1(C(=O)O)CCCC1)C1(C)CCN(C(=O)OC(C(F)(F)F)C(F)(F)F)CC1 [Example 144, l-(2-Fluoro-6-{[(1-{[(1.1,1,3,3,3-hexafluoropropan-2-yl)oxy]carbonyl}-4-methylpiperidin-4-yl)(methyl)ainino]methyl}phenyl)cyclopentane-1-carboxylic acid] the “% Inh ABHD6 Brain (Mouse, μM)” value (ABHD6) was “# (# is ≤25%)”, the “% Inh MGLL PC3 (Human, μM)” value (MAGL; PC3 cell proteome) was “### (### is ≥75%)” and the “% Inh MGLL Brain (Mouse, μM)” value (MGLL) was “### (### is ≥75%)”.
With O=C(O)c1cc(CN2CC3(CCN(C(=O)OC(C(F)(F)F)C(F)(F)F)CC3)C2)ccc1C(F)(F)F [Example 21, 5-((7-(((1,1,1,3,3,3-Hexafluoropropan-2-yl)oxy)carbonyl)-2,7-diazaspiro[3.5]nonan-2-yl)methyl)-2-(trifluoromethyl)benzoic acid] the “% Inh ABHD6 Brain (Mouse, μM)” value (ABHD6) was “### (### is ≥75%)”, the “IC50 MGLL PC3 (Human, μM)” value (MAGL; PC3 cell proteome) was “* * *” and the “% Inh MGLL PFC (Human, μM)” value (MAGL; [1]) was “### (### is ≥75%)”. The “% Inh MGLL Brain (Mouse, μM)” value (MGLL) was “### (### is ≥75%)”.
In the case of O=C(O)C1CCN(c2cc(CN3CCC4(CC3)CCN(C(=O)OC(C(F)(F)F)C(F)(F)F)C4)ccc2C(F)(F)F)CC1 [Example 221, 1-(5-((2-(((1,1,1,3,3,3-Hexafluoropropan-2-yl)oxy)carbonyl)-2.8-diazaspiro[4.5]decan-8-yl)methyl)-2-(trifluoromethyl)phenyl) piperidine-4-carboxylic acid], the “% Inh ABHD6 Brain (Mouse, μM)” value (ABHD6) was “### (### is ≥75%)”, the “% Inh MGLL PFC (Human, μM)” value (MAGL; [1]) was “### (### is ≥75%)” and the “% Inh MGLL Brain (Mouse, μM)” value (MGLL) was “### (### is ≥75%)”.
O=C(O)C1CCN(Cc2cc(C(F)(F)F)ccc2C(=O)N2CCCC23CCN(C(=O)OC(C(F)(F)F)C(F)(F)F)CC3)CC1 [Example 10, 1-(2-(8-(((1,1,1,3,3,3-Hexafluoropropan-2-yl)oxy)carbonyl)-1,8-diazaspiro[4.5]decane-1-carbonyl)-5-(trifluoromethyl)benzyl)piperidine-4-carboxylic acid] was tested, and the “% Inh ABHD6 Brain (Mouse, μM)” value (ABHD6) was “# (# is ≤25%)”, the “% Inh MGLL PC3 (Human, μM)” value (MAGL; PC3 cell proteome) was “### (### is ≥75%)” and the “% Inh MGLL Brain (Mouse, μM)” value (MGLL) was “### (### is ≥75%)”.
In the case of CC(C)(C#Cc1c(Cl)cccc1CN1CCCC12CCN(C(=O)OC(C(F)(F)F)C(F)(F)F)CC2)C(=O)O [Example 1, 4-(2-Chloro-6-((8-(((1,1,1,3,3,3-hexafluoropropan-2-yl)oxy)carbonyl)-1,8-diazaspiro[4.5]decan-1-yl)methyl)phenyl)-2,2-dimethylbut-3-ynoic acid], the “% Inh ABHD6 Brain (Mouse, μM)” value (ABHD6) was “# (# is ≤25%)”, the “% Inh MGLL PC3 (Human, μM)” value (MAGL; PC3 cell proteome) was “### (### is ≥75%)” and the “% Inh MGLL Brain (Mouse, μM)” value (MGLL) was “### (### is ≥75%)”.
In the case of CN(Cc1ccc(C(F)(F)F)cc1N1CCC(N2CCC[C@H]2C(=O)O)CC1)C1(C)CCN(C(=O)OC(C(F)(F)F)C(F)(F)F)CC1 [Example 161, (1-(2-(((1-(((1,1,1,3,3,3-Hexafluoropropan-2-yl)oxy)carbonyl)-4-methylpiperidin-4-yl)(methyl)ainino)methyl)-5-(trifluoromethyl)phenyl)piperidin-4-yl)proline], the “% Inh ABHD6 Brain (Mouse, μM)” value (ABHD6) was “### (### is ≥75%)”, the “% Inh MGLL PC3 (Human, μM)” value (MAGL; PC3 cell proteome) was “### (### is ≥75%)” and the pIC50 (MAGL; PC3 cell proteome, read-out: IC50 MGLL PC3 (Human)) was over 7.00. For the same compound, the “% Inh MGLL Brain (Mouse, μM)” value (MGLL) was “### (### is ≥75%)”.
For O=C(O)C1COCCN1c1cc(CN2CC3(CCN(C(=O)OC(C(F)(F)F)C(F)(F)F)CC3)C2)cc(C(F)(F)F)c1 (stereo not shown) [Example 103], the “% Inh ABHD6 Brain (Mouse, μM)” value (ABHD6) was “## (## is between 25 and 75%)”, the “% Inh MGLL PFC (Human, μM)” value (MAGL; [1]) was “### (### is ≥75%)” and the “% Inh MGLL Brain (Mouse, μM)” value (MGLL) was “### (### is ≥75%)”.
For CC1(C(=O)O)CCCN(c2cc(C(F)(F)F)ccc2CN2CC3(CCN(C(=O)OC(C(F)(F)F)C(F)(F)F)CC3)C2)C1 (stereo not drawn) [Example 112, l-(2-((7-(((1,1,1,3,3,3-Hexafluoropropan-2-yl)oxy)carbonyl)-2,7-diazaspiro[3.5]nonan-2-yl)methyl)-5-(trifluoromethyl)phenyl)-3-methylpiperidine-3-carboxylic acid], the “% Inh ABHD6 Brain (Mouse, μM)” value (ABHD6) was “## (## is between 25 and 75%)”, the “% Inh MGLL PFC (Human, μM)” value (MAGL; [1]) was “### (### is ≥75%)” and the “% Inh MGLL Brain (Mouse, μM)” value (MGLL) was “### (### is ≥75%)”.
With O=C(OC(C(F)(F)F)C(F)(F)F)N1CCC2(CCCN2Cc2cc(F)cc(C3(C(=O)O)CCCC3)c2)CC1 [Example 4, 1-(3-Fluoro-5-((8-(((1,1,1,3,3,3-hexafluoropropan-2-yl)oxy)carbonyl)-1,8-diazaspiro[4.5]decan-1-yl)methyl)phenyl)cyclopentane-1-carboxylic acid] the “% Inh ABHD6 Brain (Mouse, μM)” value (ABHD6) was “# (# is ≤25%)”, the “IC50 MGLL PC3 (Human, μM)” value (MAGL; PC3 cell proteome) was “* * *” and the “% Inh MGLL PC3 (Human, μM)” value (MAGL; PC3 cell proteome) was “### (### is ≥75%)”. For the same compound, the “% Inh MGLL Brain (Mouse, μM)” value (MGLL) was “### (### is ≥75%)”.
With N#Cc1ccc(C(=O)N2CCC3(CCN(C(=O)OC(C(F)(F)F)C(F)(F)F)CC3)C2)cc1C(F)(F)F [Example 12, 1,1,1,3,3,3-Hexafluoropropan-2-yl 2-(4-cyano-3-(trifluoromethyl)benzoyl)-2,8-diazaspiro[4.5]decane-8-carboxylate] the “% Inh ABHD6 Brain (Mouse, μM)” value (ABHD6) was “### (### is ≥75%)”, the “IC50 MGLL PC3 (Human, μM)” value (MAGL; PC3 cell proteome) was “* * *” and the “% Inh MGLL PFC (Human, μM)” value (MAGL; [1]) was “### (### is ≥75%)”. The “% Inh MGLL Brain (Mouse, μM)” value (MGLL) was “### (### is ≥75%)”.
In the case of O=C(O)C1CCN(Cc2cc(C(F)(F)F)ccc2CN2CCC3(CC2)CCN(C(=O)OC(C(F)(F)F)C(F)(F)F)C3)CC1 [Example 220, l-(2-((2-(((1,1,1,3,3,3-Hexafluoropropan-2-yl)oxy)carbonyl)-2,8-diazaspiro[4.5]decan-8-yl)methyl)-5-(trifluoromethyl)benzyl) piperidine-4-carboxylic acid], the “% Inh ABHD6 Brain (Mouse, μM)” value (ABHD6) was “# (# is ≤25%)”, the “% Inh MGLL PFC (Human, μM)” value (MAGL; [1]) was “## (## is between 25 and 75%)” and the “% Inh MGLL Brain (Mouse, μM)” value (MGLL) was “## (## is between 25 and 75%)”.
With CC1(C(=O)O)CCN(c2cc(C(F)(F)F)ccc2CN2CC3(CCN(C(=O)OC(C(F)(F)F)C(F)(F)F)CC3)C2)C1 (stereo not drawn) [Example 115, l-(2-((7-(((1,1,1,3,3,3-Hexafluoropropan-2-yl)oxy)carbonyl)-2,7-diazaspiro[3,5]nonan-2-yl)methyl)-5-(trifluoromethyl)phenyl)-3-methylpyrrolidine-3-carboxylic acid] the “% Inh ABHD6 Brain (Mouse, μM)” value (ABHD6) was “# (# is ≤25%)”, the “% Inh MGLL PFC (Human, μM)” value (MAGL; [1]) was “### (### is ≥75%)” and the “% Inh MGLL Brain (Mouse, μM)” value (MGLL) was “### (### is ≥75%)”.
